Source: US12472263B2, “Ophthalmic formulation” (PANOPTES PHARMA GES.M.B.H., priority 2018, dated 2025)
Values after ≈ are worked out from the molar mass of the structure shown. Where a name gives a salt, the structure may show the parent alone. Read-outs that look alike come from different tables or passages of the source.

Key:
[1] = biological target: T1, HSA (human serum albumin) (Homo sapiens, UniProt P02768); test: Binding of different pharmaceutically active compounds to albumin, RED assay; assay type: in vitro ADME; conditions: 5 h, pH 7.4
Procedure: (§1) For analysis of binding of different pharmaceutically active compounds to HSA (human serum albumin) a rapid equilibrium dialysis (RED) assay from Thermo Scientific™ was conducted. Different pharmaceutically active compounds (in saturated solutions as prepared in Example 1) were applied to the donor side of the device. PBS pH 7.4 was used as acceptor medium. The time required to achieve equilibrium in the dialysis was determined to 5 hours. The formulations were incubated at 23° C. at 300 rpm. The unbound fraction was allowed to permeate through the dialysis membrane into the acceptor buffer chamber. After 5 hours equilibration time, the unbound fraction was determined by analyzing the amount of the active compound in each compartment via LC/MS.
The amount of free compound was calculated according to the equation:
The amount of bound compound is calculated as % bound=100−% free

[2] = Thermodynamic solubility in PBS pH 7.4 and in 5% HSA in PBS; assay type: physicochemical; conditions: for solubility thermodynamic: thermodynamic from solid; for Increase in solubility: from PBS to 5% HSA in PBS
Procedure: The process was initiated by adding 1 mL of defined buffer to about 1 mg of the solid compound. The solutions were mixed for at least 15 hours. If there was no undissolved substance in the solution visible, an additional portion of the solid compound was added and the solution was further mixed for at least 15 hours. This step was repeated until a saturated solution in equilibrium was achieved; excess solid was clearly visible. The total mixing time until equilibrium should exceed 40 hours. After reaching the equilibrium, the solutions were centrifuged for 10 minutes at 14,000 rpm.

human serum albumin = human serum albumin (Homo sapiens, UniProt P02768); test: Binding of PP-001 to albumin, rapid equilibrium dialysis (RED) assay; assay type: in vitro ADME; conditions: PP-001/human serum albumin formulation, pH 7.4; formulation dosed in the rabbit PK study
Procedure: as §1, with “PP-001” for “different pharmaceutically active compounds”, “PP-001 formulations” for “pharmaceutically active compounds (in saturated solutions as prepared in Example 1)”, “device and 50 mM phosphate buffer” for “device. PBS”, “time” for “time,”, “PP-001” for “the active compound”, “HPLC/DAD.” for “LC/MS.”
(§2) To investigate nonspecific binding of PP-001 to the RED Device Inserts, a solution of 0.05 mg/mL PP-001 in 50 mM phosphate buffer pH 7.4 was used as a control sample. PP-001 concentration in the acceptor compartment was >82% of the concentration in the donor compartment. Only minor non-specific binding of PP-001 to the RED device was determined.
(§3) The amount of free PP-001 was calculated according to the equation:
(§4) The amount of bound PP-001 is calculated as % bound=100−% free

[3] = biological target: T1, HSA (human serum albumin); test: as above; assay type: in vitro ADME
Procedure: as §1, with “PP-001” for “different pharmaceutically active compounds”, “PP-001 formulations” for “pharmaceutically active compounds (in saturated solutions as prepared in Example 1)”, “device and 50 mM phosphate buffer” for “device. PBS”, “time” for “time,”, “PP-001” for “the active compound”, “HPLC/DAD.” for “LC/MS.”
as §2, §3, §4

[4] = Aqueous solubility in phosphate buffer pH 7.4, without and with 5% albumin; assay type: physicochemical; conditions: thermodynamic from solid
Procedure: As used herein, “solubility in aqueous solution of at least X mg/mL” refers to thermodynamic solubility of a compound in an aqueous 50 mM phosphate buffer or phosphate buffered saline (PBS) solution at pH 7.4 at least X mg/mL. PP-001 has a solubility of 0.8 mg/mL in an aqueous phosphate buffer solution at pH 7.4. However, if the aqueous buffer solution comprises 5% albumin PP-001 has solubility of at least 5 mg/mL.

[5] = PK study in rabbits after topical ocular administration; assay type: in vivo, New Zealand White rabbits
Procedure: To confirm that PP-001/albumin formulations deliver sufficient PP-001 to target tissues (i.e. conjunctiva and cornea), a pharmacokinetic study was performed in New Zealand White rabbits.
10 female animals of ca. 3 months age were dosed one drop (35 μL drop size) of the formulation 1 (3 mg/ml PP-001) in both eyes at time point 0. Animals were sacrificed 5 or 30 minutes or 2, 4, or 12 hours after dosing and ocular tissues and plasma were collected. PP-001 concentration in plasma and tissues were determined by a validated HPLC-MS analytical method.

uveitis = conditions: cited from earlier work
[6] = aqueous buffer, PBS pH 7.4, saturated, LC/MS, read-out: Thermodynamic solubility in PBS pH 7.4
[7] = plasma or biological fluid, 5% HSA in PBS pH 7.4, saturated, LC/MS, read-out: Thermodynamic solubility in 5% HSA in PBS pH 7.4

T1 sequence (P02768 25-609): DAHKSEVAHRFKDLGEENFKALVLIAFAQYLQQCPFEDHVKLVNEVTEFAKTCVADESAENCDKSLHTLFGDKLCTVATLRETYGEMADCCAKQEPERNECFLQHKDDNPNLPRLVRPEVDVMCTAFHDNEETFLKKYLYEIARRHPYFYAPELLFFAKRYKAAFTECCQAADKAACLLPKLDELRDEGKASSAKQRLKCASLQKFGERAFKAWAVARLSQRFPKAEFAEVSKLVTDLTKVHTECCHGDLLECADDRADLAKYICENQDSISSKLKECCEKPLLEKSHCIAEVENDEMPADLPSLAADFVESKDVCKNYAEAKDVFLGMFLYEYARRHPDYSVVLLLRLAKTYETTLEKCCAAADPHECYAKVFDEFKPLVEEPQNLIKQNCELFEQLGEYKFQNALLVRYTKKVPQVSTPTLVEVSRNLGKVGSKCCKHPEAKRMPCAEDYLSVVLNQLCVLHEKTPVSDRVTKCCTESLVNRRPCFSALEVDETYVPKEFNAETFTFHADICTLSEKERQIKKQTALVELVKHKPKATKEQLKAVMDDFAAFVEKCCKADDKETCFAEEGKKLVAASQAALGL
human serum albumin, sequence (P02768 25-609): as above

Row | Molecule | % bound ([1]; isolated protein) [%] | solubility thermodynamic [2, 6] [µg/mL] | Increase in solubility [2] | solubility thermodynamic [2, 7] [µg/mL] | also measured
1 | CN1CCCC(n2nc(Cc3ccc(Cl)cc3)c3ccccc3c2=O)CC1 (stereo not drawn) [Azelastine HCl] | 80.9 | 421 | 96% | 827 | 
2 | CCNC(=O)CCC/C=C\C[C@@H]1[C@@H](/C=C/[C@@H](O)CCc2ccccc2)[C@H](O)C[C@@H]1O [Bimatoprost] | 77.6 | 1230 (≈ 2970 µM) | 144% | 3010 (≈ 7230 µM) | 
3 | CCN[C@H]1CN(CCCOC)S(=O)(=O)c2sc(S(N)(=O)=O)cc21 [Brinzolamide] | 70.3 | 273 (≈ 712 µM) | 42% | 387 (≈ 1010 µM) | 
4 | CNCC(O)c1ccc(OC(=O)C(C)(C)C)c(OC(=O)C(C)(C)C)c1 (stereo not drawn) [Dipivefrin HCl] | 64.8 | 2340 | 218% | 7440 | 
5 | CC(=O)O[C@H]1C[C@@]2(C)[C@@H](C[C@@H](O)[C@H]3[C@@]4(C)CC[C@@H](O)[C@@H](C)[C@@H]4CC[C@@]32C)/C1=C(\CCC=C(C)C)C(=O)O [Fusidic Acid] | 95.7 | 483 (≈ 935 µM) | 195% | 1420 (≈ 2750 µM) | 
6 | C[C@@H]1CN([C@H]2CC[C@](C#N)(c3ccc(F)cc3)CC2)CC[C@]1(C(=O)O)c1ccccc1 [Levocabastine HCl] | 75.4 | 3 |  | 83 | Increase in solubility ([2]; HCl): 2,333%^; Increase in solubility ([2]; listed as levocabastine HCl, HCl): 2,333%

Further lines, with some results ahead:

Row | % bound ([1]; isolated protein) [%] | solubility thermodynamic [2, 6] [µg/mL] | Increase in solubility [2] | solubility thermodynamic [2, 7] [µg/mL] | Molecule | also measured
7 | 92.1 | 9 (≈ 35.4 µM) | 619% | 64 (≈ 252 µM) | NC(=O)Cc1cccc(C(=O)c2ccccc2)c1N [Nepafenac] | 
8 | 99.9 | 48 (≈ 100 µM) |  | 2910 (≈ 6070 µM) | O=C(Nc1c(F)c(F)c(-c2cccc(OC(F)(F)F)c2)c(F)c1F)c1ccsc1C(=O)O [PP-001, 3-(2,3,5,6-tetrafluoro-3′-trifluoromethoxy-biphenyl-4-ylcarbamoyl)-thiophene-2-carboxylic acid] | fraction unbound at 5 h, 3 mg/ml (human serum albumin): < 0.05; PP-001 concentration in the acceptor compartment as % of the donor compartment (nonspecific binding control) ([3]; 0.05 mg/mL PP-001 in 50 mM phosphate buffer pH 7.4, no albumin): > 82%; binding of PP-001 to albumin (in words) ([3]; even at high PP-001 concentrations): nearly completely bound to albumin; solubility ([4]; aqueous buffer with 5% albumin, aqueous with cosolvent or surfactant or cyclodextrin, buffer pH 7.4 with 5% albumin, read-out: solubility in aqueous buffer solution comprising 5% albumin): ≥ 5000 µg/mL; solubility ([4]; aqueous phosphate buffer, aqueous buffer, phosphate buffer pH 7.4, read-out: aqueous solubility in phosphate buffer pH 7.4): 800 µg/mL (≈ 1670 µM); % bound [1]: ~100%; Cmax ([5]; female, New Zealand White, rabbit, plasma, topical, 35 μL drop of 3 mg/ml per eye, one 35 μL drop of formulation 1 (3 mg/ml PP-001) in both eyes): < 9 ng/mL; absorption of PP-001 by ocular tissues (conjunctiva, cornea) ([5]; one 35 μL drop of formulation 1 (3 mg/ml PP-001) in both eyes): substantial amounts of PP-001 are absorbed by ocular tissues; persistence in the cornea ([5]; one 35 μL drop of formulation 1 (3 mg/ml PP-001), up to 12 hours after dosing): highly persistent in the cornea; relapses of experimental autoimmune uveitis (uveitis; therapeutic approach): prevents relapses; clinical and histological symptoms of uveitis (uveitis; two different rat models for uveitis): completely ameliorates clinical and histological symptoms
9 | 94.3 |  |  |  | CC(=O)OCC(=O)[C@@]1(O)CC[C@H]2[C@@H]3CCC4=CC(=O)C=C[C@]4(C)[C@H]3[C@@H](O)C[C@@]21C [Prednisolone acetate] | 
10 |  |  | >10,000% |  | Netarsudil mesylate | Thermodynamic solubility in 5% HSA in PBS pH 7.4 ([2]; 5% HSA in PBS pH 7.4, saturated, LC/MS): 0.140 mg/mL; Thermodynamic solubility in PBS pH 7.4 ([2]; PBS pH 7.4, saturated, LC/MS): <0.000051 mg/mL; Increase in solubility ([2]; listed as netarsudil mesylate): > 274,763%
